Source: patent publication US20130023469A1, “LEPTIN FOR USE IN INCREASING LIVER REGENERATION” (Hadasit Medical Research Services & Development Ltd., priority 2009, published 2013)
Where “and” joins values, the source holds several entries; their conditions need not be identical. Equal entries are not always repeated. Entries after “also recorded” stand apart in the source; their conditions may differ.

Columns and labels:
hepatocytes [1] = conditions: previous studies; cited from earlier work
[2] = tested on: old mice after partial hepatectomy; test: Post-hepatectomy mortality in old mice; format: in vivo; conditions: female mice aged 18-24 mo, control four out of nine, P=0.014
Method: (§1) Animal studies and tissue preparation. All animal experiments were performed in accordance with the guidelines of the Institutional Committee for the Use of Animals for Research (IACUC). Mice aged 18 months or older (‘old’ mice) were either purchased from the National Institute of Aging and from Charles River Laboratories or maintained up to the required age in the Specific Pathogen Free (SPF) animal facility at our institution. Mice aged 10-12 months (‘aged’ mice) and 8-week-old ob/ob mice were purchased from Harlan Laboratories. The genetic background of all mice was c57 Black. Pregnancy in ob/ob mice was induced as described previously (Malik et al., 2001). Pseudopregnancy was induced by mating females with vasectomized males and observing for the presence of vaginal plugs. Progesterone levels were measured to verify pseudopregnancy induction (Shiotani et al., 1993). For rapamycin treatment, mice were injected intraperitoneally (i.p.) for 3 consecutive days with rapamycin (0.2 mg/kg body weight diluted in DMSO; LC Laboratories), starting 3 h before the hepatectomy. […] For measurement of serum prothrombin time, sodium citrate (0.105 M) was added immediately to the blood sample at a ratio of 1:10 (v/v), and values were recorded with a Beckman Coulter ACL 9000 Coagulation Analyzer according to the manufacturer's instructions. […]

[3] = tested on: old mice after partial hepatectomy; test: Post-hepatectomy blood coagulation (prothrombin time) and locomotor activity tests; format: in vivo; conditions: female mice aged 18-24 mo, compared with nontreated old mice
Method: as §1, with “1993).” for “1993). For rapamycin treatment, mice were injected intraperitoneally (i.p.) for 3 consecutive days with rapamycin (0.2 mg/kg body weight diluted in DMSO; LC Laboratories), starting 3 h before the hepatectomy.”
Locomotor activity. This was monitored using a photocell cage, 43.2 cm×43.2 cm (Med Associates), with 16 beam I/R arrays located along each wall of the box. […]

Akt/mTORC1 pathway = test: Western blot / phospho-4E-BP analysis of liver for Akt/mTORC1 pathway activation; format: in vivo, mice
Method: as §1, with “Pseudopregnancy was induced by mating females with vasectomized males and observing for the presence of vaginal plugs.” left out, “1993).” for “1993). For rapamycin treatment, mice were injected intraperitoneally (i.p.) for 3 consecutive days with rapamycin (0.2 mg/kg body weight diluted in DMSO; LC Laboratories), starting 3 h before the hepatectomy.”
Western blot analysis. […] Tissue lysates containing 100 μg protein were separated by 12% SDS-PAGE, and assessed by Western blot analysis by means of sequential probing with the relevant primary antibody and a relevant anti-IgG conjugated to horseradish peroxidase (Jackson ImmunoResearch).

hepatocytes [4] = test: BrdU incorporation into hepatocytes (proliferation index) after two-thirds partial hepatectomy; format: in vivo, mice
Method: Animal studies and tissue preparation. All animal experiments were performed in accordance with the guidelines of the Institutional Committee for the Use of Animals for Research (IACUC). Mice aged 18 months or older (‘old’ mice) were either purchased from the National Institute of Aging and from Charles River Laboratories or maintained up to the required age in the Specific Pathogen Free (SPF) animal facility at our institution. Mice aged 10-12 months (‘aged’ mice) and 8-week-old ob/ob mice were purchased from Harlan Laboratories. The genetic background of all mice was c57 Black. Pregnancy in ob/ob mice was induced as described previously (Malik et al., 2001). Pseudopregnancy was induced by mating females with vasectomized males and observing for the presence of vaginal plugs. Progesterone levels were measured to verify pseudopregnancy induction (Shiotani et al., 1993). For rapamycin treatment, mice were injected intraperitoneally (i.p.) for 3 consecutive days with rapamycin (0.2 mg/kg body weight diluted in DMSO; LC Laboratories), starting 3 h before the hepatectomy. For PTEN inhibition, bpV(phen) (3.3 μg/g body weight diluted in normal saline; Alexis Biochemicals) was administered i.p. on the day before hepatectomy and once a day for 3 days thereafter. BrdU (100 μl/10 g body weight; Amersham) was injected i.p. at the indicated times before the mice were killed. When indicated, BrdU (#B5002; Sigma) was added to the drinking water (0.8 mg/ml). The mice were allowed to drink ad libitum. For all experiments mice were killed by cervical dislocation. In some cases, a liver sample was removed and ‘snap-frozen’ for protein and RNA analyses. Livers were removed, weighed, photographed, and fixed in formalin overnight, and the next day the entire liver was embedded in paraffin. For measurement of serum prothrombin time, sodium citrate (0.105 M) was added immediately to the blood sample at a ratio of 1:10 (v/v), and values were recorded with a Beckman Coulter ACL 9000 Coagulation Analyzer according to the manufacturer's instructions. For ⅔ partial hepatectomy, virgin or pregnant mice (16-18 days post-coitum unless otherwise specified) were anesthetized, and the median and left lateral lobes of the liver were removed, as described (Ben Moshe et al., 2007).
Proliferation index. The percentage of BrdU-positive hepatocyte nuclei was assessed using the Kisight module of the Ariol SL 50® automated scanning microscope and image analysis system, according to the manufacturer's instructions. The same gating parameters were used for all sections. Ten fields in each liver were scored and the average percentage was calculated.
Immunohistochemistry and immunofluorescence. […]

hepatocytes [5] = test: Hepatocyte cell size (E-cadherin staining) after partial hepatectomy; format: in vivo, mice
Method: as §1, with “Pseudopregnancy was induced by mating females with vasectomized males and observing for the presence of vaginal plugs.” left out, “1993).” for “1993). For rapamycin treatment, mice were injected intraperitoneally (i.p.) for 3 consecutive days with rapamycin (0.2 mg/kg body weight diluted in DMSO; LC Laboratories), starting 3 h before the hepatectomy.”
Measurement of cell size. […] The numbers of pixels in 100-300 individual hepatocytes for each mouse were scored with ImageJ (NIH) by an observer who was blinded to the treatment group. […] Mean hepatocyte volume was calculated by dividing the hepatocyte volume by the number of hepatocytes. […]

[6] = tested on: H35 cells (rat hepatoma cell line); test: Western blot of H35 cells treated with leptin, IL6 or both; format: cell-based; conditions: starvation for 16 h then treated
Method: Western blot analyses of hepatoma rat cells, that were under starvation for 16 h and then treated with: bpV(phen), leptin, IL-6 and combination of IL-6 and Leptin.
Leptin is an adipokine of the IL6 family and its receptor signals through both the JAK/STAT and the Akt/mTORC1 pathways. Its origin is placental in humans, maternal in mice, and in late pregnancy it is increased by up to 25-fold. To test whether pregnancy-induced leptin accumulation contributes to the proliferation-to-hypertrophy switch in pregnancy we used ob/ob mice, which carry a loss-of-function mutation in leptin. Indeed, hepatocyte proliferation was not decreased in pregnant versus non-pregnant ob/ob mice (FIG. 13A). Moreover, liver regeneration in pregnant ob/ob mice was not accompanied by hepatocyte hypertrophy (FIGS. 13B-D). These findings confirmed that maternal leptin is necessary for the pregnancy-induced module switch. Furthermore, the phosphorylation state of components of the Akt/mTORC1 pathway was not increased in pregnant relative to nonpregnant mice (FIG. 13E FIG. 4e). […] Cells were harvested and protein extracts were analyzed by Western blot analysis. […] To test whether leptin is sufficient to activate the hypertrophy module, we administered leptin or vehicle to nonpregnant female mice prior to and after hepatectomy (FIG. 15A) and assessed liver growth and proliferation.

liver regeneration = test: Prolactin administration to nonpregnant mice, liver regeneration; format: in vivo; conditions: data not shown
Description: In searching for the upstream signals mediating the pregnancy-induced switch, we identified four candidate hormones that are elevated in pregnancy and can activate the Akt/mTORC1 pathway: growth hormone (and its variants), prolactin, leptin and estrogen.

[7] = young nonpregnant mice treated with bpV(phen), after partial hepatectomy

Estrogen
hepatocyte proliferation after partial hepatectomy (hepatocytes [1]): increase hepatocyte proliferation after partial hepatectomy

O.O.O.OO.OO.[K+].[OH-].[V].c1cnc2c(c1)ccc1cccnc12 [bpV(phen), bisperoxovanadium 1,10-phenanthroline]
mortality rate [2]: zero out of nine
recovery from partial hepatectomy (blood coagulation and locomotor activity) [3]: significant improvement in recovery from partial hepatectomy
activation of Akt/mTORC1 pathway (phosphorylated Akt and 4E-BP1, Western blot) (Akt/mTORC1 pathway; liver extracts of young mice treated with bpV(phen)): activates the Akt/mTORC1 pathway
proliferation index (hepatocytes [4]; [7]): low proliferation index
BrdU-labeled hepatocytes (hepatocytes [4]; young nonpregnant mice, 4 d after partial hepatectomy, continuous BrdU, bpV(phen) 3.3 μg/g i.p., untreated 92±1%): 8±2%
growth in the mean cross-sectional area (hepatocytes [5]; [7]): 115%

CO[C@H]1C[C@@H]2CC[C@@H](C)[C@@](O)(O2)C(=O)C(=O)N2CCCC[C@H]2C(=O)O[C@H]([C@H](C)C[C@@H]2CC[C@@H](O)[C@H](OC)C2)CC(=O)[C@H](C)/C=C(\C)[C@@H](O)[C@@H](OC)C(=O)[C@H](C)C[C@H](C)/C=C/C=C/C=C/1C [rapamycin]
hepatocyte proliferation rate (BrdU-labeled) (hepatocytes [4]; aged pregnant mice, 2 d after partial hepatectomy, rapamycin 0.2 mg/kg i.p. for 3 days, vehicle 2%±1%): 25±8% and 25%±8%
cell size (hepatocytes [5]; aged pregnant mice, 2 d after partial hepatectomy, rapamycin-treated, vehicle 527±2): 422±1 μ^2

growth hormone: hormone elevated in pregnancy; not tested by the applicant, literature result only
hepatocyte proliferation after partial hepatectomy (hepatocytes [1]): increase hepatocyte proliferation after partial hepatectomy

B1: leptin: adipokine of the IL6 family; mouse leptin was injected in mice (protein, UniProt P41160 22-167, looked up)
Leptin: VPIQKVQDDTKTLIKTIVTRINDISHTQSVSAKQRVTGLDFIPGLHPILSLSKMDQTLAVYQQVLTSLPSQNVLQIANDLENLRDLLHLLAFSKSCSLPQTSGLQKPESLDGVLEASLYSTEVVALSRLQGSLQDILQQLDVSPEC
hepatocyte proliferation after partial hepatectomy (hepatocytes [1]): attenuates hepatocyte proliferation after partial hepatectomy
Akt pathway activation (phosphorylation of S6 kinase and 4E-BP) [6]: activates the Akt pathway; also recorded: phosphorylation of both S6 kinase and 4E-BP
Akt pathway activation (phosphorylation of 4E-BP) (Akt/mTORC1 pathway; nonpregnant female mice, leptin S.C. 1 mg/kg, two days after partial hepatectomy): activating the Akt pathway
hepatocyte proliferation (BrdU-positive cells) (hepatocytes [4]; nonpregnant female mice, leptin S.C. 1 mg/kg from two days before to two days after partial hepatectomy): marked reduction in hepatocyte proliferation

B2: prolactin: hormone elevated in pregnancy that can activate the Akt/mTORC1 pathway (protein, UniProt P01236 29-227, looked up)
Prolactin: LPICPGGAARCQVTLRDLFDRAVVLSHYIHNLSSEMFSEFDKRYTHGRGFITKAINSCHTSSLATPEDKEQAQQMNQKDFLSLIVSILRSWNEPLYHLVTEVRGMQEAPEAILSKAVEIEEQTKRLLEGMELIVSQVHPETKENEIYPVWSGLPSLQMADEESRLSAYYNLLHCLRRDSHKIDNYLKLLKCRIIHNNNC
effect on liver regeneration (liver regeneration): no effect on liver regeneration
